Test results published in patent publication US20220364135A1, “MODIFIED PROPIONIBACTERIUM AND METHODS OF USE” (priority 2019, published 2022).

Tests used:
[1] = tested on: cbiMCbl riboswitch; assay: FbFP reporter assay, WT cbiMCbl riboswitch in FbFP-ΔcobA strain; assay type: cell-based, P. UF1; conditions: for FbFP expression with VB12 analogues: various concentrations of analogues
From the text: (§1) To generate the cbiMCbl riboswitch-FbFP translational fusion constructs, the 5′ UTR (FIG. 6C) containing the promoter of cobA operon, wild-type cbiMCbl riboswitch and ribosome-binding site was PCR amplified from P. UF1 genome (NCBI Genome database, CP018002) with primers S-cobA-1 and S-cobA 22. The codon-optimized FbFP gene (32) was synthesized (GenScript, Piscataway, N.J.) and PCR amplified using primers S-cobA 33 and S-cobA 4. Overlapping PCR was used to ligate the 5′ UTR and FbFP gene using Primers cobA-1 and S-cobA-4, which was subsequently cloned into plasmid pYMZ between BamHI and XbaI sites. Mutations of the cbiMCbl riboswitch were generated by site-directed mutagenesis or overlapping PCR (Table S1). cbiM, cbiN, cbiO, cobA, and tetR reporters were constructed using similar strategies. All plasmids were verified via Sanger sequencing (Genewiz, South Plainfield, N.J.) and introduced into P. UF1 or ΔcobA P. UF1 by electroporation.
(§2) FbFP reporter assays: To perform FbFP fluorescence intensity measurement, bacteria were cultivated for three days in triplicate, washed, and resuspended with PBS. The excitation and emission wavelengths of FbFP were set at 452 nm and 495 nm on a microplate reader (BioTek, Winooski, Vt.), respectively (48). FbFP intensity at 495 nm was normalized by corresponding OD600 values for each sample. P. UF1 strain with an empty vector was used as the baseline for calculation of fluorescence intensity.

[2] = tested on: cobA operon; assay: Western blot of cobA operon gene expression under WT cbiMCbl riboswitch in ΔcobA P. UF1 reporter strains; assay type: cell-based; conditions: for cbiM expression with VB12 analogues: various concentrations of analogues
From the text: as §1
Western blot: Bacteria were cultivated for three days, and washed three times, followed by lysozyme digestion (10 mg/ml) for 2 hours at 37° C. Cell lysates were separated by 12% SDS-PAGE, transferred to PVDF membranes (Sigma Aldrich, St. Louis, Mo.), and blocked with Odyssey blocking buffer (Li-Cor Biosciences, Lincoln, Nebr.). Subsequently, membranes were incubated with anti-HIS-tag antibody (Thermo Fisher Scientific, Waltham, Mass.), anti-TetR antibody (Takara Bio, Mountain view, CA), anti-CobA serum antibodies, or anti-LspA serum antibodies (Stock in our lab) for 2 h at room temperature in the blocking buffer with 0.02% Tween 20. After washing with TBST (20 mM Tris, 150 mM NaCl and 0.1% Tween 20, pH 7.4), membranes were incubated with IRDye 680RD goat anti-mouse secondary antibody (Li-Cor Biosciences, Lincoln, Nebr.) for 1 hour at room temperature in the blocking buffer with 0.02% Tween 20. After washing with TBS, the proteins were detected using an Odyssey infrared imaging system (Li-Cor Biosciences, Lincoln, Nebr.). LspA was used as an internal control.

[3] = tested on: SL1-deleted riboswitch (ΔSL1); assay: FbFP reporter assay, SL1-deleted riboswitch in FbFP-ΔcobA strain; assay type: cell-based, P. UF1
From the text: as §1
as §2, with “FbFP intensity at 495 nm was normalized by corresponding OD600 values for each sample.” left out

[4] = tested on: SL1-deleted riboswitch (ΔSL1); assay: Western blot of cbiM expression, SL1-deleted riboswitch in CbiM-ΔcobA strain; assay type: cell-based, P. UF1; conditions: VB12 0-5000 ng/ml
From the text: as §1
Western blot: Bacteria were cultivated for three days, and washed three times, followed by lysozyme digestion (10 mg/ml) for 2 hours at 37° C. […] After washing with TBS, the proteins were detected using an Odyssey infrared imaging system (Li-Cor Biosciences, Lincoln, Nebr.). […]

[5] = tested on: 5′ UTR of cobA operon; assay: FbFP and cbiM reporter expression in FbFP-WT and CbiM-WT strains; assay type: cell-based, P. UF1; conditions: FbFP-WT and CbiM-WT cultures
From the text: as §1
[…] The excitation and emission wavelengths of FbFP were set at 452 nm and 495 nm on a microplate reader (BioTek, Winooski, Vt.), respectively (48). […] P. UF1 strain with an empty vector was used as the baseline for calculation of fluorescence intensity.
[…] After washing with TBS, the proteins were detected using an Odyssey infrared imaging system (Li-Cor Biosciences, Lincoln, Nebr.). […]

[6] = tested on: cobA operon; assay: qRT-PCR of cobA operon transcription; assay type: cell-based; conditions: P. UF1 incubated with various concentrations of VB12
From the text: Quantitative RT-PCR: Total RNA was extracted from various bacterial cultures using Trizol reagent (Thermo Fisher Scientific, Waltham, Mass.), and the RNA mixtures were further purified using the Aurum Total RNA Mini Kit (Bio-Rad, Hercules, Calif.). The cDNA was synthesized from total RNA using iScript Advanced cDNA Synthesis Kit (Bio-Rad, Hercules, Calif.). Quantitative real-time was accomplished with SsoAdvanced Universal SYBR Green Supermix (Bio-Rad, Hercules, Calif.) on a CFX96 real-time PCR system (Bio-Rad, Hercules, Calif.) using primers listed in Table 2 above. Results were normalized to those obtained from groL2 gene.

C/C1=C2/[N-][C@H]([C@H](CC(N)=O)[C@@]2(C)CCC(=O)NC[C@@H](C)OP(=O)([O-])O[C@H]2[C@@H](O)[C@@H](n3cnc4cc(C)c(C)cc43)O[C@@H]2CO)[C@]2(C)N=C(/C(C)=C3N=C(/C=C4N=C1[C@@H](CCC(N)=O)C\4(C)C)[C@@H](CCC(N)=O)[C@]\3(C)CC(N)=O)[C@@H](CCC(N)=O)[C@]2(C)CC(N)=O.[CH2-][C@H]1O[C@@H](n2cnc3c(N)ncnc32)[C@H](O)[C@@H]1O.[Co] [adenosylcobalamin]
FbFP expression with VB12 analogues ([1]; FbFP-ΔcobA strain): similarly downregulated | cbiM expression with VB12 analogues ([2]; CbiM-ΔcobA strain): similarly downregulated

C/C1=C2/[N-][C@H]([C@H](CC(N)=O)[C@@]2(C)CCC(=O)NC[C@@H](C)OP(=O)([O-])O[C@H]2[C@@H](O)[C@@H](n3cnc4cc(C)c(C)cc43)O[C@@H]2CO)[C@]2(C)N=C(/C(C)=C3N=C(/C=C4N=C1[C@@H](CCC(N)=O)C\4(C)C)[C@@H](CCC(N)=O)[C@]\3(C)CC(N)=O)[C@@H](CCC(N)=O)[C@]2(C)CC(N)=O.[Co+3].[OH-] [hydroxocobalamin]
FbFP expression with VB12 analogues ([1]; FbFP-ΔcobA strain): similarly downregulated | cbiM expression with VB12 analogues ([2]; CbiM-ΔcobA strain): similarly downregulated

C/C1=C2/[N-][C@H]([C@H](CC(N)=O)[C@@]2(C)CCC(=O)NC[C@H](C)OP(=O)([O-])O[C@H]2[C@@H](O)[C@@H](n3cnc4cc(C)c(C)cc43)O[C@@H]2CO)[C@]2(C)N=C(/C(C)=C3N=C(/C=C4N=C1[C@@H](CCC(N)=O)C\4(C)C)[C@@H](CCC(N)=O)[C@]\3(C)CC(N)=O)[C@@H](CCC(N)=O)[C@]2(C)CC(N)=O.[CH3-].[Co+3] [methylcobalamin]
FbFP expression with VB12 analogues ([1]; FbFP-ΔcobA strain): similarly downregulated | cbiM expression with VB12 analogues ([2]; CbiM-ΔcobA strain): similarly downregulated

Vitamin B12 [VB12]
VB12 concentration completely inhibiting expression of downstream genes by cbiMCbl riboswitch [1]: 750 µM | VB12 concentration at which expression of FbFP was completely abated ([1]; FbFP-ΔcobA strain, WT riboswitch): 500 ng/mL | half maximal inhibitory concentration (IC50) of VB12 on FbFP expression ([1]; FbFP-ΔcobA strain, WT riboswitch, VB12 0-2500 ng/ml): 75.2 ng/mL | repression of FbFP expression ([1]; WT riboswitch, 250 ng/ml VB12): ~10 fold | IC50 of VB12 on FbFP expression, SL1-deleted riboswitch ([3]; FbFP-ΔcobA strain, ΔSL1 riboswitch, VB12 0-5000 ng/ml): 12962 ng/mL | IC50 with ΔSL1 relative to WT riboswitch ([3]; ΔSL1 vs WT riboswitch): 256 times | cbiM expression (Western blot, HIS-tag antibody) ([2]; CbiM-ΔcobA strain, VB12 0-2500 ng/ml): dose-dependent inhibition | expression of cbiN and cbiO (Western blot) ([2]; CbiN-ΔcobA and CbiO-ΔcobA cultures, VB12 0-25000 ng/ml): dampened | cobA expression (Western blot) ([2]; CobA-ΔcobA strain, VB12 0-25000 ng/ml): dose-dependent inhibition but to a lesser extent | cbiM expression, ΔSL1 compared to WT riboswitch [4]: no repression | expression of FbFP and cbiM [5]: significantly decreased | mRNA levels of cbiM, cbiN, cbiO and cbiQ [6]: significantly repressed

cyanocobalamin
FbFP expression with VB12 analogues ([1]; FbFP-ΔcobA strain): similarly downregulated | cbiM expression with VB12 analogues ([2]; CbiM-ΔcobA strain): similarly downregulated
